In the experiment the target is T1, human EP3 receptor (Homo sapiens, UniProt P43115).
T1 construct: expressed in transfected cells; host or cells: CHO K1 (Chinese Hamster Ovary), stably co-transfected with Galpha16 and mitochondrial clytin
T1 sequence (P43115 1-390): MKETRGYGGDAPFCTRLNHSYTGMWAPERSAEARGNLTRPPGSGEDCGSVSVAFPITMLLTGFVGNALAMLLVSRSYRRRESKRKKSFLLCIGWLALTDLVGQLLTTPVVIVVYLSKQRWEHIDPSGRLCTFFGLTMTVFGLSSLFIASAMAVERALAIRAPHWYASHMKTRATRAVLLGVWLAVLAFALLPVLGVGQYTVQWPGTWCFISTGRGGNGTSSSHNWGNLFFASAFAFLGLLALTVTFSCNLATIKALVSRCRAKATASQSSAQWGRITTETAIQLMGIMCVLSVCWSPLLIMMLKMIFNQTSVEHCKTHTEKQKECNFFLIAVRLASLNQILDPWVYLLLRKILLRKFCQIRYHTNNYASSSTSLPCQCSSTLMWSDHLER
Put plainly: Cellular in vitro assay for determining EP3 receptor activity (human EP3 cell line, sulprostone-stimulated calcium luminescence). It is filed as cell-based. Conditions: CHO cells expressing human EP3 and mitochondrial Clytin; antagonist mode, sulprostone at EC50; read-out: EP3 CHO mtCLY ANTAG IC50. In a few lines: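 Antagonist activity was measured as inhibition of the luminescent calcium signal elicited by EC50 sulprostone, following 10 min compound pretreatment. The cell line was recombinant CHO K1 co-expressing human EP3, Gα16 and the photoprotein Clytin, reconstituted with coelenterazine.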
For the compound `CN1CC(NC(=O)c2nn3cc(-c4ccc5ccccc5c4)[nH]c(=O)c3c2Cl)(c2ccc(F)cc2)C1` [Example 1-119, 3-Chloro-N-[3-(4-fluorophenyl)-1-methylazetidin-3-yl]-6-(naphthalen-2-yl)-4-oxo-4,5-dihydropyrazolo[1,5-a]pyrazine-2-carboxamide], the IC50 came to 3.3 nM. To `Cc1cccc2ncc(-c3cn4nc(C(=O)NCc5cnn(C)c5)c(C(C)C)c4c(=O)[nH]3)cc12` [Example 4-37, N-[(1-Methyl-1H-pyrazol-4-yl)methyl]-6-(5-methylquinolin-3-yl)-4-oxo-3-(propan-2-yl)-4,5-dihydropyrazolo[1,5-a]pyrazine-2-carboxamide] belongs 2 nM; to `COC[C@@H](NC(=O)c1nn2cc(-c3ccc(C)c(C)c3)[nH]c(=O)c2c1C#N)c1ccccc1` [Example 1-74, 3-Cyano-6-(3,4-dimethylphenyl)-N-[(1S)-2-methoxy-1-phenylethyl]-4-oxo-4,5-dihydropyrazolo-[1,5-a]pyrazine-2-carboxamide], 0.92 nM; to `Cc1cc(-c2cn3nc(C(=O)NC4(c5ccc(F)cc5)CN(CC(F)(F)F)C4)c(C(F)(F)F)c3c(=O)[nH]2)ccc1Cl` [6-237], 1.9 nM. Consider `CC(C)(O)[C@@H](NC(=O)c1cc2c(=O)[nH]c(-c3ccc4c(c3)CCCC4)cn2n1)c1ccc(F)cc1` [Example 1-133, N-[(1S)-1-(4-Fluorophenyl)-2-hydroxy-2-methylpropyl]-4-oxo-6-(5,6,7,8-tetrahydronaphthalen-2-yl)-4,5-dihydropyrazolo[1,5-a]pyrazine-2-carboxamide], for which the 50% inhibitory concentration (IC50) stood at 2.8 nM. The figure for `Cc1cc(-c2cn3nc(C(=O)N[C@H]4CCN(C5CC5)C4)c(C4CC4)c3c(=O)[nH]2)ccc1Cl` (single isomer, unassigned) [6-324] is 0.97 nM; for `Cc1ccc(-c2cn3nc(C(=O)NC(CO)C(F)(F)F)c(C4CC4)c3c(=O)[nH]2)cc1C(F)(F)F` (single isomer, unassigned) [6-249] it is 3 nM. To `Cc1ccc(-c2cn3nc(C(=O)NC4(c5ccc(F)cc5)CC4)cc3c(=O)[nH]2)cc1C` [6-24] belongs 2.03 nM. The figure for `Cc1ccc(-c2cn3nc(C(=O)N[C@@H](c4ccc(F)cc4)[C@H](O)C(F)(F)F)c(C4CC4)c3c(=O)[nH]2)cc1Cl` [6-272] is 1.22 nM; for `Cc1cc(-c2cn3nc(C(=O)N[C@H](C)C(C)C)c(C4CC4)c3c(=O)[nH]2)ccc1C(F)(F)F` [Example 1-139, 3-Cyclopropyl-N-[(2R)-3-methylbutan-2-yl]-6-[3-methyl-4-(trifluoromethyl)phenyl]-4-oxo-4,5-dihydropyrazolo[1,5-a]pyrazine-2-carboxamide] it is 7.55 nM. Turning to `O=C(N[C@H](CN1CC(F)C1)c1ccccc1)c1cc2c(=O)[nH]c(-c3ccc4ccccc4c3)cn2n1` [6-545], the IC50 amounted to 0.77 nM. For `O=C(N[C@@H](c1ccc(F)cc1)C(F)(F)CO)c1nn2cc(-c3ccc(Cl)cc3)[nH]c(=O)c2c1C1CC1` [6-675], the half-maximal inhibitory concentration (IC50) was found to be 1.5 nM. The figure for `Cc1cc(C)nc(CNC(=O)c2nn3cc(-c4cnc5cccc(C)c5c4)[nH]c(=O)c3c2C(C)C)n1` [Example 4-60, N-[(4,6-Dimethylpyrimidin-2-yl)methyl]-6-(5-methylquinolin-3-yl)-4-oxo-3-(propan-2-yl)-4,5-dihydropyrazolo[1,5-a]pyrazine-2-carboxamide] is 2.1 nM. To `Cc1ccc([C@@H](C)NC(=O)c2nn3cc(-c4cnc5cccc(C)c5c4)[nH]c(=O)c3c2C(C)C)cc1` [Example 4-55, N-[(1R)-1-(4-Methylphenyl)ethyl]-6-(5-methylquinolin-3-yl)-4-oxo-3-(propan-2-yl)-4,5-dihydropyrazolo[1,5-a]pyrazine-2-carboxamide] belongs 2.75 nM; to `Cc1cccc2ncc(-c3cn4nc(C(=O)NCC(C)Cn5cccn5)c(C(C)C)c4c(=O)[nH]3)cc12` (stereo not drawn) [Example 4-30, 3-Isopropyl-N-[2-methyl-3-(1H-pyrazol-1-yl)propyl]-6-(5-methylquinolin-3-yl)-4-oxo-4,5-dihydropyrazolo[1,5-a]pyrazine-2-carboxamide], 2.7 nM; to `CC(C)c1c(C(=O)N[C@@H](C)C2CC2)nn2cc(-c3ccc(Cl)c(F)c3)[nH]c(=O)c12` [6-539], 3.3 nM. Regarding `Cc1ccc(-c2cn3nc(C(=O)N[C@@H](c4ccc(F)cc4)C(F)(F)CO)c(C4CC4)c3c(=O)[nH]2)cc1Cl` [6-256], the concentration for half-maximal inhibition (IC50) was determined as 1.1 nM. To `Cc1cccc2ncc(-c3cn4nc(C(=O)NC5(c6ccccc6)CCOCC5)c(C(C)C)c4c(=O)[nH]3)cc12` [Example 4-77, 3-Isopropyl-6-(5-methylquinolin-3-yl)-4-oxo-N-(4-phenyltetrahydro-2H-pyran-4-yl)-4,5-dihydropyrazolo[1,5-a]pyrazine-2-carboxamide] belongs 0.835 nM. To `Cc1ccc(-c2cn3nc(C(=O)NC(CO)C(F)(F)F)c(C4CC4)c3c(=O)[nH]2)cc1C(F)(F)F` (single isomer, unassigned) [6-250] belongs 6.3 nM. Turning to `Cc1ccc(-c2cn3nc(C(=O)N[C@@H](C)C4CC4)c(C4CC(F)(F)C4)c3c(=O)[nH]2)cc1Cl` [6-560], the half-maximal inhibitory concentration (IC50) was 1.6 nM. Take `COC[C@@H](NC(=O)c1cc2c(=O)[nH]c(-c3ccc4c(c3)OCCO4)cn2n1)c1ccccc1` [6-49]: the 50% inhibitory concentration (IC50) was 1.6 nM.

With `COc1ccc(C2(NC(=O)c3cc4c(=O)[nH]c(-c5ccc6ccccc6c5)cn4n3)CN(C(=O)OC(C)(C)C)C2)cn1` [Example 1-6, tert.-Butyl 3-(6-methoxypyridin-3-yl)-3-({[6-(naphthalen-2-yl)-4-oxo-4,5-dihydropyrazolo[1,5-a]-pyrazin-2-yl]carbonyl}amino)azetidine-1-carboxylate], the IC50 is 1.28 nM. The figure for `Cc1ccc(-c2cn3nc(C(=O)N[C@@H](C)C(C)(C)C)c(C4CC4)c3c(=O)[nH]2)cc1Cl` [6-253] is 4.75 nM; for `Cc1cccc2ncc(-c3cn4nc(C(=O)N[C@H](CCO)c5ccccc5)cc4c(=O)[nH]3)cc12` [Example 1-114, N-[(1R)-3-Hydroxy-1-phenylpropyl]-6-(5-methylquinolin-3-yl)-4-oxo-4,5-dihydropyrazolo[1,5-a]-pyrazine-2-carboxamide] it is 3.15 nM.

On to `Cc1cc(CNC(=O)c2nn3cc(-c4cnc5cccc(C)c5c4)[nH]c(=O)c3c2C(C)C)on1` [Example 4-41, N-[(3-Methyl-1,2-oxazol-5-yl)methyl]-6-(5-methylquinolin-3-yl)-4-oxo-3-(propan-2-yl)-4,5-dihydropyrazolo[1,5-a]pyrazine-2-carboxamide], for which the IC50 is 0.95 nM. To `Cc1ccc(-c2cn3nc(C(=O)N[C@H](C)c4ccc(F)cc4)cc3c(=O)[nH]2)cc1Cl` [6-81] belongs 2.8 nM. Regarding `Cc1cc(-c2cn3nc(C(=O)NCC(O)C(F)(F)F)c(C4CC4)c3c(=O)[nH]2)ccc1Cl` (single isomer, unassigned) [6-313], the concentration for half-maximal inhibition (IC50) is 1.65 nM. The figure for `COc1ccc2c(c1)CCCC2NC(=O)c1nn2cc(-c3cnc4cccc(C)c4c3)[nH]c(=O)c2c1C(C)C` (stereo not drawn) [Example 4-64, 3-Isopropyl-N-(6-methoxy-1,2,3,4-tetrahydronaphthalen-1-yl)-6-(5-methylquinolin-3-yl)-4-oxo-4,5-dihydropyrazolo[1,5-a]pyrazine-2-carboxamide] is 2.55 nM; for `COc1cccc(C(CCO)NC(=O)c2nn3cc(-c4cnc5cccc(C)c5c4)[nH]c(=O)c3c2C(C)C)c1` (stereo not drawn) [Example 4-45, N-[3-Hydroxy-1-(3-methoxyphenyl)propyl]-3-isopropyl-6-(5-methyl-3-quinolyl)-4-oxo-5H-pyrazolo[1,5-a]pyrazine-2-carboxamide] it is 0.61 nM. The figure for `CC(C)C(NC(=O)c1cc2c(=O)[nH]c(-c3ccc4ccccc4c3)cn2n1)c1ccc(F)cc1` (stereo not drawn) [Example 2-48, N-[1-(4-Fluorophenyl)-2-methylpropyl]-6-(2-naphthyl)-4-oxo-4,5-dihydropyrazolo[1,5-a]pyrazine-2-carboxamide] is 3.6 nM. To `COc1ccc(CNC(=O)c2cc3c(=O)[nH]c(-c4ccc5ccccc5c4)cn3n2)cc1OC` [Example 1-103, N-(3,4-Dimethoxybenzyl)-6-(2-naphthyl)-4-oxo-4,5-dihydropyrazolo[1,5-a]pyrazin-2-carboxamide] belongs 1.87 nM. For the compound `Cc1ccc(-c2cn3nc(C(=O)N[C@H](CCO)c4ccc(F)cc4)cc3c(=O)[nH]2)cc1F` [6-638], the half-inhibitory concentration (IC50) is 1.36 nM. For the compound `O=C(NCCc1cccc(F)c1)c1cc2c(=O)[nH]c(-c3ccc4ccccc4c3)cn2n1` [Example 2-52, N-[2-(3-Fluorophenyl)ethyl]-6-(2-naphthyl)-4-oxo-4,5-dihydropyrazolo[1,5-a]pyrazine-2-carboxamide], the IC50 is 4.4 nM. To `CC[C@@H](C)NC(=O)c1cc2c(=O)[nH]c(-c3ccc(C)c(C4CC4)c3)cn2n1` [6-613] belongs 3.67 nM; to `CC(NC(=O)c1nn2cc(-c3ccc4ccccc4c3)[nH]c(=O)c2c1C#N)c1cccc(Br)c1` (stereo not drawn) [Example 3-47, N-[1-(3-Bromophenyl)ethyl]-3-cyano-6-(2-naphthyl)-4-oxo-5H-pyrazolo[1,5-a]pyrazine-2-carboxamide], 5.45 nM. In the case of `Cc1ccc(-c2cn3nc(C(=O)NCC(O)C(F)(F)F)c(C4CC4)c3c(=O)[nH]2)cc1C` (single isomer, unassigned) [6-436], the concentration for half-maximal inhibition (IC50) amounted to 0.84 nM.

Values taken from patent US20220324865A1 (Bayer Aktiengesellschaft, priority 2018, published 2022).
